Assay [1] has as its target Histone deacetylase 2 (Homo sapiens, UniProt Q92769). As to the kind of experiment: Inhibition of HDAC2 (unknown origin) assessed as residual activity at 1.1 x 10^-6M (reference value: 99.81%). Conditions: dose 1.1 10^-6M.
The target in assay [2] is T1, Histone deacetylase 3 (Homo sapiens, UniProt O15379). As to the kind of experiment: Inhibition of HDAC3 (unknown origin) using p53 residues 379 to 382 [RHKK(Ac)] as fluorogenic substrate assessed as residual activity at 3.33 x 10^-6M (reference value: 103.08%). Conditions: dose 3.33 10^-6M.
For assay [3], the target named is T1, Histone deacetylase 3. As to the kind of experiment: Inhibition of HDAC3 (unknown origin) using p53 residues 379 to 382 [RHKK(Ac)] as fluorogenic substrate assessed as residual activity at 1.37 x 10^-8M (reference value: 103.08%). Conditions: dose 1.37 10^-8M.
Assay [4] addresses T1, Histone deacetylase 3. Briefly: Inhibition of HDAC3 (unknown origin) using p53 residues 379 to 382 [RHKK(Ac)] as fluorogenic substrate assessed as residual activity at 1.52 x 10^-9M (reference value: 103.08%). Conditions: dose 1.52 10^-9M.
Assay [5] concerns the target Histone deacetylase 5 (Homo sapiens) (UniProt Q9UQL6). Briefly: Inhibition of HDAC5 (unknown origin) assessed as residual activity at 1.37 x 10^-8M (reference value: 100%). Conditions: dose 1.37 10^-8M.
For assay [6], the target named is T2, Histone deacetylase 7 (Homo sapiens) (UniProt Q8WUI4).
T2 sequence (whole entry): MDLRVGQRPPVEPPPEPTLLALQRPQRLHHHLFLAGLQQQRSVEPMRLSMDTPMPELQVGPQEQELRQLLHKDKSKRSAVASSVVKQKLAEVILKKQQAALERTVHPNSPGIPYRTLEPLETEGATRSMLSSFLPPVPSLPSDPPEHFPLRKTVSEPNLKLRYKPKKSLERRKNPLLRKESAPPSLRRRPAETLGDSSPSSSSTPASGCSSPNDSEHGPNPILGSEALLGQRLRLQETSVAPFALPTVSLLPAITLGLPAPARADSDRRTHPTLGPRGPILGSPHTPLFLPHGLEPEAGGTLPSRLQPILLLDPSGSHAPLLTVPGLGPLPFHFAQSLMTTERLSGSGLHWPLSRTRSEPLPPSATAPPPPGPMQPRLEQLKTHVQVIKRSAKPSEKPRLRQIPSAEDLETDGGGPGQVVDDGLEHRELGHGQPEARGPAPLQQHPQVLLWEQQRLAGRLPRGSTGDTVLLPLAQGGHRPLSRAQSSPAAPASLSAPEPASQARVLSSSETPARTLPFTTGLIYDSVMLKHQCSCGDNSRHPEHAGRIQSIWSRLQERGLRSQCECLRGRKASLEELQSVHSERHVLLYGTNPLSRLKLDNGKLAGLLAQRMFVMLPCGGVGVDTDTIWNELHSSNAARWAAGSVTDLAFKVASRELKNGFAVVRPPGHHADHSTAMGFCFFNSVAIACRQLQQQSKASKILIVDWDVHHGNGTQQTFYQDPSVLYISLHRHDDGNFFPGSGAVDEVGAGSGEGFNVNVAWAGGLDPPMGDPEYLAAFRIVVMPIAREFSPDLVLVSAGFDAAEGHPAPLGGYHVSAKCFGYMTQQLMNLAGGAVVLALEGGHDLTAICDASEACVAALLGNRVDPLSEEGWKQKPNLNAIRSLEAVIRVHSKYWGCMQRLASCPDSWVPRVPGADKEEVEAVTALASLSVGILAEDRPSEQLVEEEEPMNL
As to the kind of experiment: Inhibition of HDAC7 (unknown origin) assessed as residual activity at 3.33 x 10^-6M (reference value: 102.66%). Conditions: dose 3.33 10^-6M.

Assay [7] has as its target Histone deacetylase 9 (Homo sapiens) (UniProt Q9UKV0). Briefly: Inhibition of HDAC9 (unknown origin) assessed as residual activity at 1.52 x 10^-9M (reference value: 97.55%). Conditions: dose 1.52 10^-9M.
Assay [8] deals with T3, Polyamine deacetylase HDAC10 (Homo sapiens) (UniProt Q969S8).
T3 sequence (whole entry): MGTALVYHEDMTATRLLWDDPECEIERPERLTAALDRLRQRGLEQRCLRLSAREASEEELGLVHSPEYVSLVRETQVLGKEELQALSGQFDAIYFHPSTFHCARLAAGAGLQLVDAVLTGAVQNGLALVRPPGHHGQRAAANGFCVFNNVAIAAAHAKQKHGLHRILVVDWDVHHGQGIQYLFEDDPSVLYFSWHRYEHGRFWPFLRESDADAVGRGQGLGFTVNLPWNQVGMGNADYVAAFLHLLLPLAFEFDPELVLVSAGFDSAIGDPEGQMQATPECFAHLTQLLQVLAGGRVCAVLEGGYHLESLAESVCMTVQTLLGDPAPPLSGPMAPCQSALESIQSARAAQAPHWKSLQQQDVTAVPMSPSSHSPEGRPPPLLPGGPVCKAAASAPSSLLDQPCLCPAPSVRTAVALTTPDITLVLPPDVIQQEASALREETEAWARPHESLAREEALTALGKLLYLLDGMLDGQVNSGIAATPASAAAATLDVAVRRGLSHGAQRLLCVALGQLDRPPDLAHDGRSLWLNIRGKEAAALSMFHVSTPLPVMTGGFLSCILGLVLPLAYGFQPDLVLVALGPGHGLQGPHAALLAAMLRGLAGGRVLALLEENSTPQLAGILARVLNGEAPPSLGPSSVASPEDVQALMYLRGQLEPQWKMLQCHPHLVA
As to the kind of experiment: Inhibition of HDAC10 (unknown origin) assessed as residual activity at 1.1 x 10^-6M (reference value: 101.54%). Conditions: dose 1.1 10^-6M.

Assay [9] relates to HL-60. Briefly: Downregulation of HDAC1 protein expression in human HL-60 cells at 0.5 to 1 times IC50 by Western blot analysis. The assay is classed as functional, cell-based.
Assay [10] relates to HL-60. Briefly: Downregulation of HDAC3 protein expression in human HL-60 cells by Western blot analysis. The assay is classed as functional, cell-based. Conditions: dose 0.2-5 µM.
For assay [11], the system named is HL-60. As to the kind of experiment: Downregulation of PAR protein expression in human HL-60 cells at 0.5 to 1 times IC50 measured after 24 hrs by Western blot analysis. The assay is classed as functional, cell-based. In general terms: Immunoblotting shows a protein as a band on a membrane.
The subject of assay [12] is HL-60. As to the kind of experiment: Induction of cell cycle arrest in G0/G1 phase in human HL-60 cells assessed as downregulation of cyclin D1 protein expression at 0.5 to 1 times IC50 by Western blot analysis. The assay is classed as functional, cell-based.
Assay [13] has as its system HL-60. Briefly: Induction of cell cycle arrest in G0/G1 phase in human HL-60 cells assessed as downregulation of AKT protein expression at 0.5 to 1 times IC50 by Western blot analysis. Type of assay: functional, cell-based.

For 1 compound, Activity results are on record in ChEMBL document CHEMBL5550160, “Leveraging a rationally designed veliparib-based anilide eliciting anti-leukemic effects for the design of pH-responsive polymer nanoformulation” (Eur J Med Chem, 2024).

Active and inactive are the calls of the source. The rule behind the calls is not given here.

T1 sequence (O15379 whole entry, the tested form may be a part): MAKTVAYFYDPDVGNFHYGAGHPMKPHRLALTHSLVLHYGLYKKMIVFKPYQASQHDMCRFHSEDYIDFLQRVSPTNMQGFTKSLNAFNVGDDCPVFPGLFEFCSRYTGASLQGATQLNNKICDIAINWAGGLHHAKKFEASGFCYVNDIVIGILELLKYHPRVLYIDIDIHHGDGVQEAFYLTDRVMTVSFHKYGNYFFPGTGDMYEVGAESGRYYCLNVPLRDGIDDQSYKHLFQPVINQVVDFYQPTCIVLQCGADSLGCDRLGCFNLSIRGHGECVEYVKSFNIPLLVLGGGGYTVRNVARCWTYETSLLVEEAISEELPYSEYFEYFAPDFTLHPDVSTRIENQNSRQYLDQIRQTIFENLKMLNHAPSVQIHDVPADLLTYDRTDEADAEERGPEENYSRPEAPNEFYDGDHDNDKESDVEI
Chain of Histone deacetylase 9 (Homo sapiens) (Q9UKV0 whole entry): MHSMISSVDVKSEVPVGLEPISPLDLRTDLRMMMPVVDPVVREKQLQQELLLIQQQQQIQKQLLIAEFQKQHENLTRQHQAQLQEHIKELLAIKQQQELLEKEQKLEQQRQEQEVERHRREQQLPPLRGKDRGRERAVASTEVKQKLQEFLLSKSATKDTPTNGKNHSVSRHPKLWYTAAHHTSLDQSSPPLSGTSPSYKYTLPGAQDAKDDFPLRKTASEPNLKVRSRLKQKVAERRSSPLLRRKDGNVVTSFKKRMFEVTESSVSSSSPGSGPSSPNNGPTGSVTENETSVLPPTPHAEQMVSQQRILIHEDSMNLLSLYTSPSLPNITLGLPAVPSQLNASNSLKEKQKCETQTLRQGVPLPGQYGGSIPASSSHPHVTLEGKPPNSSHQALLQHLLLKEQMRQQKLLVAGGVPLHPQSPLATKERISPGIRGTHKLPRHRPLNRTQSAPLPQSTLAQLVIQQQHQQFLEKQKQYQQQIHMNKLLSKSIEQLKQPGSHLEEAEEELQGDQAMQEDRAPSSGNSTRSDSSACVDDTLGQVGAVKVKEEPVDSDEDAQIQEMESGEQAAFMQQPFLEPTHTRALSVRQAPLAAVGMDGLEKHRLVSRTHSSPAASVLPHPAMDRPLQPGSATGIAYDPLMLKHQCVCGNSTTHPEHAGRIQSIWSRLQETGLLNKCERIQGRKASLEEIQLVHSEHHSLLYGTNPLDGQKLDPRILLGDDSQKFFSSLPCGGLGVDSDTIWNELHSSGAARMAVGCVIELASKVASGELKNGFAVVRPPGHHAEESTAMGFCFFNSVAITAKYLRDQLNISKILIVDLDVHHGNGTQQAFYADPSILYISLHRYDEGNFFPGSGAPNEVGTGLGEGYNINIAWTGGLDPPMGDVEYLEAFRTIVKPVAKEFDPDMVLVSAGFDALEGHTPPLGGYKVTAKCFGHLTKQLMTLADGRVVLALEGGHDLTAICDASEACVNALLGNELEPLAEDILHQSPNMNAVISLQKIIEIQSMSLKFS
Chain of Histone deacetylase 5 (Homo sapiens) (Q9UQL6 whole entry): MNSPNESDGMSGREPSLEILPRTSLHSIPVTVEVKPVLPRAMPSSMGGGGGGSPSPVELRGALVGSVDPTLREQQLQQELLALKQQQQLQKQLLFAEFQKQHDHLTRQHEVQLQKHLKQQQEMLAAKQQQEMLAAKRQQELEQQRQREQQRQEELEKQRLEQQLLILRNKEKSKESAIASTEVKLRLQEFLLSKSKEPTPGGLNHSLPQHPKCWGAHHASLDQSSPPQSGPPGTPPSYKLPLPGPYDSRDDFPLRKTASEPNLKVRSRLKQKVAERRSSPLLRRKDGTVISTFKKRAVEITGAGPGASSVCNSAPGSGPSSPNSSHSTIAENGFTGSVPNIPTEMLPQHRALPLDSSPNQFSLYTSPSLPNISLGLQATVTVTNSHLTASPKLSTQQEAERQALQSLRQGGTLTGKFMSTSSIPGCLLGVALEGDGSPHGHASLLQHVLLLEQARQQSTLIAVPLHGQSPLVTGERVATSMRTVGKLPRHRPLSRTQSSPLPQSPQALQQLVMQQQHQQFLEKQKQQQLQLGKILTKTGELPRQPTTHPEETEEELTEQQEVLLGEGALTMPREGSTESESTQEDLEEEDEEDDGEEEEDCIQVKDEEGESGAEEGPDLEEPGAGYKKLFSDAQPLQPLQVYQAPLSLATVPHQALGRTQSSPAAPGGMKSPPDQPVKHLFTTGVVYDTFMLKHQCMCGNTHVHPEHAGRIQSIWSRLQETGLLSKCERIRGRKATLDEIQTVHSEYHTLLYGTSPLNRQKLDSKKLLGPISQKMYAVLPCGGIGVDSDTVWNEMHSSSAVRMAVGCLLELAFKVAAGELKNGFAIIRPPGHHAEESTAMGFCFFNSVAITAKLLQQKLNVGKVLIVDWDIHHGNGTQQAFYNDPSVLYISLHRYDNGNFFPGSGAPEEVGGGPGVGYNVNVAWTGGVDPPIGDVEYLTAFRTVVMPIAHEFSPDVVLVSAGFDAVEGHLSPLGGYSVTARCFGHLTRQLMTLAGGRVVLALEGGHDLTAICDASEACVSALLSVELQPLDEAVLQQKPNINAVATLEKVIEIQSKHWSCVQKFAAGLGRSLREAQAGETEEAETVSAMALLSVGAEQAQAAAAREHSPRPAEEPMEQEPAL
Chain of Histone deacetylase 2 (Q92769 whole entry, the tested form may be a part): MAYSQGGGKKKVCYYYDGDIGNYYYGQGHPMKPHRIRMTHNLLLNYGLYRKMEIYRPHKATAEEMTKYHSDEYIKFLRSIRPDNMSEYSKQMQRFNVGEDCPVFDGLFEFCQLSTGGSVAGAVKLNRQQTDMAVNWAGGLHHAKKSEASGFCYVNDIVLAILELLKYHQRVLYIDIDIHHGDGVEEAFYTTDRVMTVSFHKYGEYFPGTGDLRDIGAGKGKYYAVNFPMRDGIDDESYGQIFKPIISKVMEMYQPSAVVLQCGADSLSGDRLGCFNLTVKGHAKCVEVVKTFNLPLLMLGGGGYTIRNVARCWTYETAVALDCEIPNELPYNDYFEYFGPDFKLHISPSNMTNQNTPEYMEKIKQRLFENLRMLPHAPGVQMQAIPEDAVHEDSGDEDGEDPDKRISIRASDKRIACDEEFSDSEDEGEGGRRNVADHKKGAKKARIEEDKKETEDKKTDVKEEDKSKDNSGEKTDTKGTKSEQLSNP

With `NC(=O)c1cccc2[nH]c(-c3ccc(NCc4ccc(C(=O)Nc5ccccc5N)cc4)cc3)nc12`, the Activity came out at 12.8% in assay [1]; 12.8% in assay [2]; 110% in [3]; 97.7% in [4]; 84% in assay [5]; 95.6% in assay [6]. Further, the Activity in assay [7] was 97.8%; in assay [8], 96.2%; in assay [10] it was “Dose-Dependent Effect”; in assay [11], “Dose-Dependent Effect”. Moreover, the result in [9], in [12] and in [13] was Active.
